# No end group written: not given here.
# T1: PAR-4 (Homo sapiens, UniProt Q96RI0)
# T1 construct: host or cells: Chem-1 cells
# T1 sequence (Q96RI0 18-385): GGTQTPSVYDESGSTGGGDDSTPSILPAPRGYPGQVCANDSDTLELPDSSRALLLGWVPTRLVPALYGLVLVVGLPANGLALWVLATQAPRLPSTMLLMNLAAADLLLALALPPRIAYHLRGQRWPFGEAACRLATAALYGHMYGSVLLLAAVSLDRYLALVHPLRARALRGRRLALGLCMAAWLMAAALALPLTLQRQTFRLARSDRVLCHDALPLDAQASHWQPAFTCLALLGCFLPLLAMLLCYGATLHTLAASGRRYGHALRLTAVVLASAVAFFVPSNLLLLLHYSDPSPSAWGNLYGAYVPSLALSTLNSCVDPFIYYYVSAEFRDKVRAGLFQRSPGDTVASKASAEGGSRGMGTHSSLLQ
# Legend:
# [1] = test system: thrombin receptors; test: Calcium flux and thrombin-S100A8/A9 cross-desensitization in Chem-3 cells; assay type: cell-based; conditions: for calcium flux in Chem-3 cells: each alone
# Method: (§1) Screening for S100A8 and S100A9 activity on thrombin receptors including thrombin receptor desensitization were conducted with calcium flux assays in Chem 3 and PAR-4 expressing Chem.-1 cells by Millipore's GPCRProfiler(R) Service (Millipore, St. Charles, Mo.; see website Millipore website on the internet).
# [2] = test system: Human peripheral neutrophils; test: Spontaneous oxidative activation of neutrophils (DCFH-DA oxidation); assay type: cell-based; conditions: for rate of oxidation of the DCFH probe with soluble PAR ligands: soluble peptides given as 100 mM (FIG. 5); for rate of spontaneous oxidation of the DCFH-DA probe: 2.5 to 10 μg/ml of protein, followed over time, p <0.001 to <0.05; for oxidative metabolism (fluorescence emission of DCFH-DA probe): 1 h time point, all concentrations tested, P<0.05 compared to control; for spontaneous oxidation of the DCFH probe with protease inhibitors: α1 antichymotrypsin and elafin printed as 10 mM (FIG. 4)
# Source text: (§2) Human peripheral neutrophils were isolated from heparinized blood donated by healthy volunteers according to a protocol approved by the University of Illinois Institutional Review Board. The cells were isolated using a Histopaque™ gradient (Sigma) according to the manufacturer's instructions. Cell viability and identity was confirmed by trypan blue staining. Live cells and neutrophils represented at least 95% of isolated leukocytes.
# (§3) The method for the measurement of oxidative activation of neutrophils was based on the ROS-dependent oxidation of DCFH-DA to DCF and was adapted from Ciapetti et al. DCFH-DA crosses the cell membrane and is hydrolyzed by nonspecific esterases to nonfluorescent DCFH. Its oxidation by ROS results in the generation of highly fluorescent DCF [30]. DCFH-DA is therefore a widely accepted probe for the measurement of an overall index of oxidative activity. DCFH-DA was purchased from Calbiochem (Madison, Wis.). The assays were run in clear bottom black 96-well plate. “Edge effects” (a higher fluorescence in edge wells) were avoided by using only center wells. Briefly, 50 μl of Dulbecco's Phosphate Buffered Saline (DPBS) containing DCFH-DA was added to each well with the final concentration of […]. S100 proteins or PKC inhibitors were diluted in the wells. Just before a baseline reading 100,000 neutrophils in 50 μl PBS were placed in each well. 96-well plates were incubated at 37° C. and 5% CO2 and were read at baseline (immediately after cell addition to the plates) and at indicated time points in a Spectra Max Gemini XS fluorescent plate reader. The excitation wavelength was 485 and the reading was done at 530 nm. Wells with no DCFH-DA were used to measure background fluorescence which was subtracted from each reading. Controls with no cells were also analyzed and display no increased fluorescence over time. All assays were conducted in triplicate or quadruplicate wells.
# In order to avoid differences between donors, experimental procedures and plate to plate variation, all experimental conditions and statistical analysis were run within one plate inclusive of all positive and negative controls. Single sample t-tests were calculated to test the S100A8, S100A9 and combined proteins in comparison to the control wells with alpha set to ≦0.05 to determine statistical significance. Comparisons between the S100A8, S100A9 and combined proteins were calculated with two sample t-tests using SPSS (SPSS Inc., Chicago, Ill.) with alpha set to ≦0.05 to determine statistical relevance.
# [3] = test system: Human peripheral neutrophils; test: PMA induced activation of neutrophil oxidative metabolism (DCFH-DA oxidation); assay type: cell-based
# Source text: as §2, §3
# [4] = test system: Human peripheral neutrophils; test: LPS stimulated neutrophil oxidative metabolism (DCFH-DA oxidation); assay type: cell-based
# Source text: as §2, §3
# [5] = target: T1, PAR-4; test: Calcium flux and desensitization to thrombin in PAR-4 expressing Chem.-1 cells; assay type: cell-based
# Method: as §1
# [6] = test system: neutrophils; conditions: in-vitro; Sroussi et al., 2006, 2007; cited from earlier work
# [7] = 0.01 mU/ml ADA1, S100 proteins 10 to 2.5 μg/ml
molecule,measurement,setting,value
thrombin [reference compound],desensitization of Chem-3 cells to S100A8 or S100A9 stimulation,"[1]; 10 nM thrombin first, then 10 μM S100A8 or 10 μM S100A9",resulted in a desensitization of Chem-3 cells to further stimulation
same,calcium flux in Chem-3 cells,[1],trigger calcium flux in Chem-3 cells in a dose dependent manner
"CN(C)CCCn1cc(C2=C(c3c[nH]c4ccccc34)C(=O)NC2=O)c2ccccc21 [GFX, Bisindolylmaleimide I, reference compound]",spontaneous activation of neutrophils oxidative metabolism,[2]; 5 μM GFX,significantly inhibited both the PMA induced and the spontaneous activation of neutrophils oxidative metabolism
same,PMA induced activation of neutrophils oxidative metabolism,"[3]; 5 μM GFX, 1 μM PMA",significantly inhibited both the PMA induced and the spontaneous activation of neutrophils oxidative metabolism
"GYPGQV-NH2 [PAR-4, reference compound]",rate of oxidation of the DCFH probe with soluble PAR ligands,[2],resulted in a significantly accelerated rate of oxidation of the DCFH probe
"SLIGKV-NH2 [PAR-2, reference compound]",rate of oxidation of the DCFH probe with soluble PAR ligands,[2],"not PAR-1, PAR-2 or PAR-3"
"S100A9: recombinant human S100A9 calcium binding protein, expressed in Escherichia coli as GST fusion, GST tag cleaved",rate of spontaneous oxidation of the DCFH-DA probe,[2],reduced the rate at which spontaneous oxidation of the DCFH-DA probe occurred in a dose dependent manner
same,oxidative metabolism (fluorescence emission of DCFH-DA probe),[2],significantly inhibited oxidative metabolism at all concentrations tested
same,PMA activation of neutrophils,[3]; dose dependent,produced a dose dependent inhibition of PMA activation of neutrophils
same,LPS stimulation of neutrophil oxidative activity,"[4]; 2.5 to 10 μg/ml of protein, LPS 10 μg/ml",strongly inhibited LPS stimulation of neutrophil oxidative activity
same,calcium flux in Chem-3 cells,[1],trigger calcium flux in Chem-3 cells in a dose dependent manner
same,calcium flux in PAR-4 expressing cells,[5]; data not shown,activated calcium flux in those cells
same,desensitization of PAR-4 expressing cells to thrombin activation,"[5]; previous treatment with different concentrations, then 10 nM thrombin",dose dependently desensitized PAR-4 expressing cells to thrombin activation
same,neutrophil chemotaxis toward bacterial products (formylated peptides),[6],inhibit neutrophil chemotaxis toward bacterial products
"TFLLRN [PAR-1, reference compound]",rate of oxidation of the DCFH probe with soluble PAR ligands,[2],"not PAR-1, PAR-2 or PAR-3"
"TFRGAP-NH2 [PAR-3, reference compound]",rate of oxidation of the DCFH probe with soluble PAR ligands,[2],"not PAR-1, PAR-2 or PAR-3"
"elafin: inhibitor of PR3 and elastase (AQEPVKGPVSTKPGSCPIILIRCAMLNPPNRCLKDTDCPGIKKCCEGSCGMACFVPQ; ends and bridges not checked; cysteine pairing not given here; UniProt P19957 61-117, looked up) [reference compound]",spontaneous oxidation of the DCFH probe with protease inhibitors,[2],no effect on DCFH oxidation
"CCCCCCCCCCCCCC(=O)O[C@@H]1[C@@H](C)[C@@]2(O)[C@@H](C=C(CO)C[C@]3(O)C(=O)C(C)=C[C@@H]23)[C@@H]2C(C)(C)[C@]12OC(C)=O [PMA, phorbol 12-myristate 13-acetate, reference compound]",rate of DCFH oxidation by a PKC activator,[2]; 1 μM PMA,significantly accelerated the rate of DCFH oxidation
"COc1ccccc1NC(=O)Nc1nc(-c2cccnc2)nc2ccccc12 [VUF5574, N-(2-methoxyphenyl)-N′-[2-(3-pyridinyl)-4-quinazolinyl]-urea, reference compound]","effect on anti-oxidative effect of S100A8, spontaneous oxidative metabolism","[2]; 2.5 μg/ml S100A8, 1 hour",produces a dose sensitive inhibition the anti-oxidative effect of S100A8 on neutrophil spontaneous oxidative metabolism
same,"effect on anti-oxidative effect of S100A8 and S100A9, LPS exposed neutrophils","[4]; 10 μM, 10 μg/ml LPS",This anti-oxidative effect was countered
calprotectin: mixture of S100A8 and S100A9 at a 1:1 weight ratio referred to as calprotectin (protein) chain 1: MLTELEKALNSIIDVYHKYSLIKGNFHAVYRDDLKKLLETECPQYIRKKGADVWFKELDINTDGAVNFQEFLILVIKMGVAAHKKSHEESHKE chain 2: MTCKMSQLERNIETIINTFHQYSVKLGHPDTLNQGEFKELVRKDLQNFLKKENKNEKVIEHIMEDLDTNADKQLSFEEFIMLMARLTWASHEKMHEGDEGPGHHHKPGLGEGTP,rate of spontaneous oxidation of the DCFH-DA probe,[2],reduced the rate at which spontaneous oxidation of the DCFH-DA probe occurred in a dose dependent manner
same,oxidative metabolism (fluorescence emission of DCFH-DA probe),[2],significantly inhibited oxidative metabolism at all concentrations tested
"ADA1: Human adenosine deaminase from human erythrocytes; deaminates adenosine to inosine (protein, UniProt P00813 2-363, looked up) Adenosine deaminase: AQTPAFDKPKVELHVHLDGSIKPETILYYGRRRGIALPANTAEGLLNVIGMDKPLTLPDFLAKFDYYMPAIAGCREAIKRIAYEFVEMKAKEGVVYVEVRYSPHLLANSKVEPIPWNQAEGDLTPDEVVALVGQGLQEGERDFGVKARSILCCMRHQPNWSPKVVELCKKYQQQTVVAIDLAGDETIPGSSLLPGHVQAYQEAVKSGIHRTVHAGEVGSAEVVKEAVDILKTERLGHGYHTLEDQALYNRLRQENMHFEICPWSSYLTGAWKPDTEHAVIRLKNDQANYSLNTDDPLIFKSTLDTDYQMTKRDMGFTEEEFKRLNINAAKSSFLPEDEKRELLDLLYKAYGMPPSASAGQNL",effect on S100A8/S100A9 inhibition of spontaneous oxidative metabolism,[2]; [7],partially or fully abrogated
same,effect on S100A8/S100A9 inhibition of LPS stimulated oxidative metabolism,[4]; [7],partially or fully abrogated
α1 antichymotrypsin: α1-Antichymotrypsin from human plasma; inhibits cathepsin G (protein) HPNSPLDEENLTQENQDRGTHVDLGLASANVDFAFSLYKQLVLKAPDKNVIFSPLSISTALAFLSLGAHNTTLTEILKGLKFNLTETSEAEIHQSFQHLLRTLNQSSDELQLSMGNAMFVKEQLSLLDRFTEDAKRLYGSEAFATDFQDSAAAKKLINDYVKNGTRGKITDLIKDLDSQTMMVLVNYIFFKAKWEMPFDPQDTHQSRFYLSKKKWVMVPMMSLHHLTIPYFRDEELSCTVVELKYTGNASALFILPDQDKMEEVEAMLLPETLKRWRDSLEFREIGELYLPKFSISRDYNLNDILLQLGIEEAFTSKADLSGITGARNLAVSQVVHKAVLDVFEEGTEASAATAVKITLLSALVETRTIVRFNRPFLMIIVPTDTQNIFFMSKVTNPKQA,spontaneous oxidation of the DCFH probe with protease inhibitors,[2],caused a marked and significant reduction in the oxidation of the DCFH probe
